Measurements reported in publication PMC7845594, “Novel Immune Modulators Enhance Caenorhabditis elegans Resistance to Multiple Pathogens” (mSphere, 2021).

Experiments:
[1] = test system: glp-4(bn2) worms exposed to methicillin-resistant S. aureus strain MRSA131; test: S. aureus infection assay (liquid); format: in vivo, Caenorhabditis elegans; conditions: glp-4(bn2) worms, 96 h; ± 95% confidence interval
glp-4(bn2) worms = test: Longevity (life span) assay; conditions: 50 μM in NGM, E. coli OP50, Fig 3A
[2] = test system: C. elegans host defense pathway genes; test: nanoString expression of 115 immune- and stress-responsive genes; conditions: 100 μM LK molecules, 16 h
Outline: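 Wild-type young adult C. elegans (2,000 per condition) exposed to 100 μM LK molecules or DMSO control in S Basal medium for 16 h. RNA purified and expression of 115 immune- and stress-responsive genes quantified by nanoString; two biological replicates per condition.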

SMILES: CN(C)/N=N/c1ccc(-c2cn(Cc3ccccc3)cn2)cc1 [LK38]
- S. aureus EC [1]: > 64 µM
- TD50 (time to 50% death), life span (glp-4(bn2) worms): 7.6 days
- B0024.4 expression, induction [2]: 3.17 fold
- C02B4.2 nhr-17 expression, induction [2]: 1.71 fold
- C06B3.7 expression, induction [2]: 1.11 fold
- C07G3.2 irg-1 expression, induction [2]: 2.65 fold
- C12C8.1 hsp-70 expression, induction [2]: 0.53 fold
- C15F1.7 sod-1 expression, induction [2]: 1.43 fold
- C29F7.2 expression, induction [2]: 32.57 fold
- C31A11.5 oac-6 expression, induction [2]: 9.73 fold
- C32D5.12 expression, induction [2]: 3.71 fold
- C32H11.1 expression, induction [2]: 18.31 fold
- C32H11.3 expression, induction [2]: 11.99 fold
- C34G6.4 pgp-2 expression, induction [2]: 4.68 fold
- C37C3.10 expression, induction [2]: 2.39 fold
- C37H5.8 hsp-6 expression, induction [2]: 1.74 fold
- C49G7.5 irg-2 expression, induction [2]: 3.91 fold
- F08F8.5 numr-1 expression, induction [2]: 1.76 fold
- F08H9.4 expression, induction [2]: 1.05 fold
- F14F9.3 expression, induction [2]: 6.65 fold
- F22B5.4 expression, induction [2]: 4.88 fold
- F22H10.2 expression, induction [2]: 0.89 fold
- F26A3.4 expression, induction [2]: 1.16 fold
- F35E8.11 cdr-1 expression, induction [2]: 136.66 fold
- F35G2.4 phy-2 expression, induction [2]: 1.91 fold
- F37B12.2 gcs-1 expression, induction [2]: 1.21 fold
- F43E2.8 hsp-4 expression, induction [2]: 1.31 fold
- F44E5.5 expression, induction [2]: 0.94 fold
- F49F1.6 expression, induction [2]: 3.06 fold
- F49F1.7 expression, induction [2]: 27.43 fold
- F49H6.13 expression, induction [2]: 1.54 fold
- F54B8.4 expression, induction [2]: 5.05 fold
- F55G11.2 expression, induction [2]: 2.13 fold
- F59A7.1 clec-206 expression, induction [2]: 56.72 fold
- F59B10.4 expression, induction [2]: 3.99 fold
- H12D21.1 nspa-1 expression, induction [2]: 0.84 fold
- H23N18.1 ugt-13 expression, induction [2]: 7.19 fold
- H23N18.3 ugt-8 expression, induction [2]: 35.45 fold
- K05B2.4 expression, induction [2]: 25.19 fold
- K08F4.7 gst-4 expression, induction [2]: 1.42 fold
- K09A9.1 nipi-3 expression, induction [2]: 2.18 fold
- K10D11.2 expression, induction [2]: 2.89 fold
- K10G4.3 expression, induction [2]: 3.15 fold
- R03D7.6 gst-5 expression, induction [2]: 21.05 fold
- R08H2.1 dhs-23 expression, induction [2]: 243.00 fold
- R10E8.3 expression, induction [2]: 1.97 fold
- T19D12.3 expression, induction [2]: 1.91 fold
- T19H12.1 ugt-9 expression, induction [2]: 8.16 fold
- T21E8.1 pgp-6 expression, induction [2]: 3.69 fold
- T22B7.3 expression, induction [2]: 1.08 fold
- T24C4.4 expression, induction [2]: 1.30 fold
- T24E12.5 expression, induction [2]: 2.60 fold
- T27E4.3 hsp-16.48 expression, induction [2]: 0.91 fold
- T27E4.8 hsp-16.1 expression, induction [2]: 0.90 fold
- T27F6.8 expression, induction [2]: 3.28 fold
- T28C12.4 expression, induction [2]: 8.72 fold
- W02D9.10 expression, induction [2]: 0.89 fold
- Y22D7AL.5 hsp-60 expression, induction [2]: 0.89 fold
- Y38E10A.15 nspe-7 expression, induction [2]: 1.82 fold
- Y46H3A.2 hsp-16.41 expression, induction [2]: 0.62 fold
- Y46H3A.3 hsp-16.2 expression, induction [2]: 0.79 fold
- Y56A3A.33 expression, induction [2]: 1.72 fold
- Y58A7A.5 expression, induction [2]: 2.03 fold
- ZC376.7 atfs-1 expression, induction [2]: 2.11 fold
- ZC443.6 ugt-16 expression, induction [2]: 78.74 fold
- ZK697.6 gst-21 expression, induction [2]: 47.19 fold
